Experimental data: publication PMC2928807, “Chitin Synthases from Saprolegnia Are Involved in Tip Growth and Represent a Potential Target for Anti-Oomycete Drugs” (PLoS Pathogens, 2010)

T1: SmCHS2 (chitin synthase 2) (Saprolegnia monoica, UniProt D7NQS9)
T1 construct: full-length SmCHS2 (962 amino acids) fused to eGFP at its C-terminus, expressed in Pichia pastoris, CHAPS extract of membranes
T1 sequence (D7NQS9 1-962): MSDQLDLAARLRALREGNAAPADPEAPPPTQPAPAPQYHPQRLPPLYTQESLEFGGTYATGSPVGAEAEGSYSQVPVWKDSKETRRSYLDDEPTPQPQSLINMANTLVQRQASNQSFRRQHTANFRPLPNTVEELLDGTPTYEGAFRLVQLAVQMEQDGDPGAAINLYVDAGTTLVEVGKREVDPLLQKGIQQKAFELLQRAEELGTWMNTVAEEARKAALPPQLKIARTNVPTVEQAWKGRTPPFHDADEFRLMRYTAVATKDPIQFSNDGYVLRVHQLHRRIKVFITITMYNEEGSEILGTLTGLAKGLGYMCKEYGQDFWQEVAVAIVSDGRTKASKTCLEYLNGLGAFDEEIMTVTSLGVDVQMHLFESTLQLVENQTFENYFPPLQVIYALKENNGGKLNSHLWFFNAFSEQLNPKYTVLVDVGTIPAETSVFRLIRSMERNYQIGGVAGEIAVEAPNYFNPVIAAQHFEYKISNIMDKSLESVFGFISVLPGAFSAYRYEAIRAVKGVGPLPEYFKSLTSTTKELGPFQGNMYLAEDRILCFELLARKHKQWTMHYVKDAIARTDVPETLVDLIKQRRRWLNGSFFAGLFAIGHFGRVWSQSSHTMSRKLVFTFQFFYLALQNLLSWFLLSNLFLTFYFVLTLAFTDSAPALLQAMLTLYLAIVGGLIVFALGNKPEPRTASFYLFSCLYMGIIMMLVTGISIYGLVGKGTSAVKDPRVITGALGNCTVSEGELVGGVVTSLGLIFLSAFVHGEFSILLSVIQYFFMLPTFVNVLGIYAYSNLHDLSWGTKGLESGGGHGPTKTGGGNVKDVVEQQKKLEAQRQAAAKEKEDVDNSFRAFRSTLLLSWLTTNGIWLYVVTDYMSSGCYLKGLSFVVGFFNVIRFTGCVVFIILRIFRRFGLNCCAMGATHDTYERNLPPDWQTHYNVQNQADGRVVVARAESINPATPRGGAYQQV

B1: SmCHS2 (chitin synthase 2) (Saprolegnia monoica) (protein)
chain: MSDQLDLAARLRALREGNAAPADPEAPPPTQPAPAPQYHPQRLPPLYTQESLEFGGTYATGSPVGAEAEGSYSQVPVWKDSKETRRSYLDDEPTPQPQSLINMANTLVQRQASNQSFRRQHTANFRPLPNTVEELLDGTPTYEGAFRLVQLAVQMEQDGDPGAAINLYVDAGTTLVEVGKREVDPLLQKGIQQKAFELLQRAEELGTWMNTVAEEARKAALPPQLKIARTNVPTVEQAWKGRTPPFHDADEFRLMRYTAVATKDPIQFSNDGYVLRVHQLHRRIKVFITITMYNEEGSEILGTLTGLAKGLGYMCKEYGQDFWQEVAVAIVSDGRTKASKTCLEYLNGLGAFDEEIMTVTSLGVDVQMHLFESTLQLVENQTFENYFPPLQVIYALKENNGGKLNSHLWFFNAFSEQLNPKYTVLVDVGTIPAETSVFRLIRSMERNYQIGGVAGEIAVEAPNYFNPVIAAQHFEYKISNIMDKSLESVFGFISVLPGAFSAYRYEAIRAVKGVGPLPEYFKSLTSTTKELGPFQGNMYLAEDRILCFELLARKHKQWTMHYVKDAIARTDVPETLVDLIKQRRRWLNGSFFAGLFAIGHFGRVWSQSSHTMSRKLVFTFQFFYLALQNLLSWFLLSNLFLTFYFVLTLAFTDSAPALLQAMLTLYLAIVGGLIVFALGNKPEPRTASFYLFSCLYMGIIMMLVTGISIYGLVGKGTSAVKDPRVITGALGNCTVSEGELVGGVVTSLGLIFLSAFVHGEFSILLSVIQYFFMLPTFVNVLGIYAYSNLHDLSWGTKGLESGGGHGPTKTGGGNVKDVVEQQKKLEAQRQAAAKEKEDVDNSFRAFRSTLLLSWLTTNGIWLYVVTDYMSSGCYLKGLSFVVGFFNVIRFTGCVVFIILRIFRRFGLNCCAMGATHDTYERNLPPDWQTHYNVQNQADGRVVVARAESINPATPRGGAYQQV
notes: full-length SmCHS2 (962 amino acids) fused to eGFP at its C-terminus, expressed in Pichia pastoris, CHAPS extract of membranes

Legend:
[1] = target: T1, SmCHS2 (chitin synthase 2); test: radiometric chitin synthase assay ([…]-UDP-GlcNAc) on CHAPS membrane extract of recombinant Pichia; Dixon plots; assay type: biochemical
[2] = substrate: CC(=O)N[C@H]1[C@@H](OP(=O)(O)OP(=O)(O)OC[C@H]2O[C@@H](n3ccc(=O)[nH]c3=O)[C@H](O)[C@@H]2O)O[C@H](CO)[C@@H](O)[C@@H]1O; test: radiometric chitin synthase assay on CHAPS membrane extract of recombinant Pichia; apparent Km; assay type: biochemical, Saprolegnia monoica

Row | Molecule | Ki [1] | Km [2]
1 | C[C@@H]([C@H](N)C(=O)N[C@H](C(=O)O)[C@H]1O[C@@H](n2ccc(=O)[nH]c2=O)[C@H](O)[C@@H]1O)[C@H](O)c1ccc(O)cn1 [nikkomycin Z] | 4.6 µM | –
2 | B1 | – | 150+12 µM
